# Test results: PubChem BioAssay AID2202554 (NIEHS Division of Translational Toxicology (DTT))
# Records with an inconclusive call do not appear. Activity calls are given as the source filed them. The rule behind the calls is not given here. Residues, ends and D or L forms follow the SMILES beside them.
# System: S. typhimurium/E. coli reverse mutation, colony counts
# Assay: Bacterial reverse mutation test (aka Ames test) summary data
# Outline: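 S. typhimurium his⁻ strains (TA97–TA1538) and E. coli WP2 uvrA pKM101 trp⁻, dosed over a range with or without rat, hamster or mouse liver S9. Preincubated 20 min at 37° C (or plate incorporation), plated in agar, incubated usually two days. Revertant colonies counted against negative controls.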
row,SMILES,outcome
1,CCOC(=O)CC(SP(=S)(OC)OC)C(=O)OCC (stereo not drawn),inactive; negative
2,O=C(O)C(F)(F)C(F)(F)C(F)(F)C(F)(F)C(F)(F)C(F)(F)C(F)(F)C(F)(F)F,inactive; negative
3,CCCCCCCCCCCCCCCCCCCC,inactive; negative
4,Clc1ccc2ccccc2c1,inactive; negative
5,CN(C)CCN(Cc1ccccc1)c1ccccc1,inactive; negative
6,CC(C)[C@@H]1CC[C@@H](C)C[C@H]1O,inactive; negative
7,c1ccc2c(c1)c1cccc3ccc4cccc2c4c31,active; positive
8,O=C1O[C@H](CO)[C@@H](O)[C@H](O)[C@H]1O,inactive; negative
9,Cc1cccc([N+](=O)[O-])c1C,active; positive
10,Cc1cn([C@H]2C=C[C@@H](CO)O2)c(=O)[nH]c1=O,active; weakly positive
11,O=Cc1ccc(Cl)cc1,inactive; negative
12,CCC1CO1 (stereo not drawn),active; positive
13,Cc1ccc(N)cc1O,active; positive
14,CCC(C)C(C)CO (stereo not drawn),inactive; negative
15,CCCCCCCC(=O)O,inactive; negative
16,O=C1c2c(O)ccc(O)c2C(=O)c2c(NCCO)ccc(NCCO)c21,active; positive
17,Cl[C@@H]1C2(Cl)C3C4[C@@H]5O[C@@H]5[C@H]5C3[C@@](Cl)(C2(Cl)Cl)[C@]1(Cl)[C@@H]45 (stereo partly drawn),active; positive
18,Nc1ccc(N=Nc2ccccc2)cc1,active; positive
19,CC(=O)C=Cc1ccccc1,active; positive
20,Nc1cc([N+](=O)[O-])ccc1O,active; positive
21,Nc1cc(Cl)ccc1Cl,inactive; negative
22,CCCC=O,inactive; negative
23,NCCNc1cccc2ccccc12,active; positive

row,SMILES,outcome
1,CC1=C(/C=C/C(C)=C/C=C/C(C)=C/C=C/C=C(C)/C=C/C=C(C)/C=C/C2=C(C)CCCC2(C)C)C(C)(C)CCC1,active; positive
2,COC(=O)c1ccccc1C(=O)OC,inactive; negative
3,C=C(Cl)CSC(=S)N(CC)CC,active; positive
4,c1ccc(N(c2ccccc2)c2ccccc2)cc1,inactive; negative
5,NC(Cc1ccc(F)cc1)C(=O)O (stereo not drawn),inactive; negative
6,Cc1ccc(O)cc1,inactive; negative
7,O.O=S(=O)([O-])[O-].[Mn+2],inactive; negative
8,Nc1ccc2ccccc2c1N=Nc1ccc([N+](=O)[O-])cc1,active; positive
9,CC(=O)C=Cc1ccco1,inactive; negative
10,CCCCCCCCC=O,inactive; negative
11,OCCOc1ccccc1,inactive; negative
12,Cc1ccc([N+](=O)[O-])cc1C(=O)O,active; positive
13,O=[N+]([O-])c1cccc(O)c1,active; weakly positive
14,COc1ccccc1C=CC=O,active; weakly positive
15,Cc1ccc(C(C)(C)C)cc1,inactive; negative
16,Cc1cc(C)c(N=Nc2c(O)c(S(=O)(=O)O)cc3cc(S(=O)(=O)O)ccc23)cc1C,inactive; negative
17,CN(Cc1cnc2nc(N)nc(N)c2n1)c1c(Cl)cc(C(=O)N[C@@H](CCC(=O)O)C(=O)O)cc1Cl,active; weakly positive
18,[O]=[V]([OH])([OH])[OH],inactive; negative
19,COC(=O)[C@H](Cc1ccccc1)NC(=O)[C@@H](N)CC(=O)O (H-Asp-Phe-OMe),inactive; negative
20,C=CC(=C)C,inactive; negative
21,COc1ccc(C=O)cc1OC,inactive; negative
22,O=C(O)COc1ccccc1,inactive; negative
23,ClC=CCCl,active; positive

row,SMILES,outcome
1,OC[C@@]1(O)CO[C@](O)(CO)CO1,active; positive
2,CC(=O)Nc1ccc(C)cc1,active; weakly positive
3,CC(N)=S,inactive; negative
4,CN(C)CCCCl,active; positive
5,CC(C)(Cl)Cl,inactive; negative
6,O=C1OC2(c3ccc(O)cc3Oc3cc(O)ccc32)c2ccccc21,inactive; negative
7,CCOC(=O)OCC,inactive; negative
8,CC(=O)c1cc(C)oc1C,active; positive
9,CCCCCCCCC1CO1 (stereo not drawn),inactive; negative
10,O=CNc1nc(-c2ccc([N+](=O)[O-])o2)cs1,active; positive
11,COc1ccc2cc3[n+](cc2c1OC)CCc1cc2c(cc1-3)OCO2,inactive; negative
12,CC1CCCC1,inactive; negative
13,O=[N+]([O-])C(Br)(CO)CO,inactive; negative
14,NCCCN,inactive; negative
15,CCCCCCCCCCCCCCCCCCCCCCCCCCCCO,inactive; negative
16,ClC(Cl)(Cl)C1CO1 (stereo not drawn),active; positive
17,COc1ccc(N)c(C)c1,active; positive
18,BrC(Br)C(Br)(Br)Br,inactive; negative
19,OCC1CCC(CO)CC1 (stereo not drawn),inactive; negative
20,NC(=S)Nc1ccccc1,inactive; negative
21,c1ccoc1,active; weakly positive
22,ClC(Cl)=C(Cl)C(Cl)=C(Cl)Cl,inactive; negative
